# Data reported in patent US20240109873A1, “ANTAGONISTS OF THE MUSCARINIC ACETYLCHOLINE RECEPTOR M4” (Vanderbilt University, priority 2020, published 2024).
# pIC50: −log10 of the molar value.
# How the values were obtained:
# human mAChR M4 = target: T1, human mAChR M4 (Homo sapiens, UniProt P08173); assay: mAChR M4 cell-based functional assay (calcium flux, antagonism of EC80 acetylcholine response, M4/Gqi5/CHO-K1 cells); settings: for remaining activity at 30 µM: CHO-K1, % ACh maximum at 30 μM, read-out: Human M4 Emin; for pIC50: decrease of the response elicited by an EC80 concentration of acetylcholine, CHO-K1 cells, Gqi5
# T1 construct: expressed in transfected cells; host or cells: CHO-K1 (ATCC), co-transfected with chimeric G protein Gqi5
# T1 sequence (P08173 1-479): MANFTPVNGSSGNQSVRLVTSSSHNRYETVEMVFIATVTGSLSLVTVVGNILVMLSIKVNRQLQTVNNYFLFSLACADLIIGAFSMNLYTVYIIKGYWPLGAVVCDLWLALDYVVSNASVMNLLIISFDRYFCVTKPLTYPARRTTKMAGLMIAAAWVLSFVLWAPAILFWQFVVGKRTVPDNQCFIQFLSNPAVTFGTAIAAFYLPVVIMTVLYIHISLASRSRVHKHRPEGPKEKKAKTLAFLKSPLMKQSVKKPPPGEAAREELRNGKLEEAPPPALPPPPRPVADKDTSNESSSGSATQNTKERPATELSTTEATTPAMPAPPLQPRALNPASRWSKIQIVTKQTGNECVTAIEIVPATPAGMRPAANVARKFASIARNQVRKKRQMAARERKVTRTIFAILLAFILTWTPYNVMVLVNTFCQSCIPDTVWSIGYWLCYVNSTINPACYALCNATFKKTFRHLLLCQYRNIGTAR
# How it was run: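 CHO-K1 cells stably expressing human M4 with chimeric Gqi5, loaded with Fluo-4 AM; calcium flux read on FDSS. Compounds (10-point, 1:3 curves) added first, then EC20 acetylcholine at 143 s and EC80 at 268 s. IC50 from decrease of EC80 acetylcholine response, four-parameter logistic fit.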
# mice = assay: haloperidol-induced catalepsy, a model of parkinsonian motor disability; assay type: in vivo
# Source text: Furthermore, haloperidol-induced catalepsy, a model of parkinsonian motor disability, is reduced in M4 knockout mice as compared to wild-type controls. […] The reversal by scopolamine was uncommonly robust and more pronounced than we observe with agents targeting a number of other targets being evaluated for potential antiparkinsonian effects, including metabotropic glutamate (mGlu) receptors mGlu4 or mGlu5, A2A adenosine receptors, and NMDA receptors. […] Taken together with the extensive studies of M4 modulation of basal ganglia and motor function, these studies provide compelling evidence that M4 is the dominant mAChR subtype involved in the antiparkinsonian effects of non-selective mAChR antagonists and provide support for discovery and development of selective M4 antagonists for treatment of neurodegenerative disease such as PD, dystonia, tardive dyskinesia and other movement disorders.
Structure (SMILES),remaining activity at 30 µM (human mAChR M4) [%],pIC50 (human mAChR M4),reduction of catalepsy induced by haloperidol (mice; M4 KO mice),reversal of catalepsy induced by haloperidol (mice; WT mice)
"[2H]C([2H])(C1CC2(CC2)CO1)N1C[C@H]2C[C@H](Nc3ccc(-c4cccnc4C(F)(F)F)nn3)C[C@H]2C1 (stereo partly drawn) [Compound 54, (3aR,Ss,6aS)-2-((5-oxaspiro[2.4]heptan-6-yl)methyl-d2)-N-(6-(2-(trifluoromethyl)pyridin-3-yl)pyridazin-3-yl)octahydrocyclopenta[c]pyrrol-5-amine]",2,9.16,–,–
"[2H]C([2H])(N1C[C@H]2C[C@H](Nc3ccc(-c4cccnc4C(F)(F)F)nn3)C[C@H]2C1)C12COC(C)(C1)C2 [Compound 55, (3aR,5s,6aS)-2-((1-methyl-2-oxabicyclo[2.1.1]hexan-4-yl)methyl-d2)-N-(6-(2-(trifluoromethyl)pyridin-3-yl)pyridazin-3-yl)octahydrocyclopenta[c]pyrrol-5-amine]",3,8.26,–,–
"[2H]C([2H])(C1CCOC2(CCC2)C1)N1C[C@H]2C[C@H](Nc3ccc(-c4cccnc4C(F)(F)F)nn3)C[C@H]2C1 (stereo partly drawn) [Compound 60, (3aR,5s,6aS)-2-((5-oxaspiro[3.5]nonan-8-yl)methyl-d2)-N-(6-(2-(trifluoromethyl)pyridin-3-yl)pyridazin-3-yl)octahydrocyclopenta[c]pyrrol-5-amine]",4,8.85,–,–
CN1[C@@H]2C[C@@H](OC(=O)[C@H](CO)c3ccccc3)C[C@H]1[C@@H]1O[C@@H]12 [scopolamine],–,–,ineffective in reducing catalepsy,completely reversed
